Test results: patent publication EP1219604A1, “METHOD FOR IMPROVING THE SOLUBILITY OF TRICYCLIC AMINO ALCOHOL DERIVATIVES” (Asahi Kasei Kabushiki Kaisha, priority 1999, dated 2001)
Like-named read-outs stand apart in the source and are kept apart here.

Columns and labels:
[1] = Crystallinity by powder X-ray diffractometry; type: physicochemical; details: for crystallinity: equation of crystallinity
Description: Whether a compound of the general formula (1) is amorphous or not, or the degree of amorphous status thereof can be determined based on its crystallinity, for example, measured by powder X-ray diffractometry. Generally, the degree of amorphous status can be indicated with the following equation. Degree of Amorphous status = 100 - Crystallinity [formula]
Powder X-ray diffractometry is a method comprising irradiating a powder sample with X-ray to compulsively oscillate electrons contained in the sample material, and measuring at each angle of diffraction the diffraction intensity of the coherent scattering X-ray caused by the compulsively oscillated electrons. The measurement data is indicated with the X-ray diffraction pattern as a diffraction intensity with respect to each angle of diffraction. […] Therefore, an amorphous substance can be distinguished from a crystalline substance based on their X-ray diffraction patterns and/or crystallinities. The measurement by powdery X-ray diffractometry in accordance with the present invention can be carried out with Shimadzu Powder X-ray Diffractometer (XRD-6000) under the following measurement conditions.
• Anticathode: Cu • X-ray tube voltage: 40 kV • X-ray tube current: 30 mA • Goniometer • Driving axle: θ-2θ • Scanning range: 3-49.98° • Scanning rate: 2°/min
The crystallinity was obtained with the soft of Shimazu Powder X-ray Diffractometer by carrying out the corrected calculation treatment of the Lorentz polarization factor of the measured data, calculating the integrated intensity of the peak derived from crystalline substance (Icr) and the integrated intensity of the peak derived from amorphous substance (Ia),respectively and calculating the concentration of crystalline moiety in the test sample, that is the crystallinity based on the ratio thereof by the following equation: x =(1)/(1 + K ×(I a)/(I cr))× 100 [formula] wherein X is a crystallinity; Icr is an integrated intensity of crystalline moiety; Ia is an integrated intensity of amorphous moiety; K is a ratio of the crystalline moiety of X ray intensity scattered from a certain amount of a material to the amorphous moiety thereof (the calculation is usually done under K=1).
Each standard sample was subjected to a powder X-ray diffraction measurement to determine the peak height and crystallinity of each standard sample (the powder X-ray diffraction pattern of the standard samples 1, 2, 3 and 4 being shown in Figures 1, 8, 9 and 10, respectively). A measurement by powdery X-ray diffractometry was carried out with Shimadzu Powder X-ray Diffractometer (XRD-6000) under the following measurement conditions.
Measurement condition: • Anticathode: Cu • X-ray tube voltage: 40 kV • X-ray tube current: 30 mA • Goniometer • Driving axle: θ-2θ • Scanning range: 3-50° • Scanning rate: 2°/min
The crystallinity was calculated with the soft of Shimadzu Powder X-ray Diffractometer. The thus obtained crystallinity of each standard sample was as follows:
These measurements were carried out based on the height of a diffraction peak as an indication, wherein the diffraction peak is characteristic of Compound A. The characteristic diffraction peak is a diffraction peak which can be distinguished from the diffraction peak derived from a pharmaceutically acceptable carrier and can characterize Compound A. Representative examples of the diffraction peak characteristic of Compound A include peaks at θ-2θ of about 8.5°, about 12.8°, about 16.2°, about 20.4°, about 21.4°, about 25.2° and about 26.9°. It is preferred to select a diffraction peak in which the relation between the height of diffraction peak and the crystallinity has a clear linearity.
With respect to each diffraction peak, a graph showing the correlation between the peak height and the crystallinity was made in which the peak height of each standard sample (vertical axis) is potted against the crystallinity (horizontal axis). […]

[2] = Solubility in water, 1st fluid and 2nd fluid of the Japanese pharmacopeia disintegration test (shaking, filtration, HPLC); type: physicochemical; details: thermodynamic from solid
Experimental: That is, the solutions used were the water specified in the disintegration test method of the 13th edition of the Japanese pharmacopeia, the 1st fluid (a model of human gastric juice) and the 2nd fluid(a model of human intestinal juice). The processes for preparing them are as follows:
The 1st fluid (a model of human gastric juice) was an aqueous solution (pH about 1.2) prepared by dissolving sodium chloride (2.0 g) and hydrochloric acid (7.0 mL) in an amount of water such that the total volume is 1,000 mL.
The 2nd fluid (a model of human intestinal juice) was an aqueous solution (pH about 6.8) prepared by mixing a 0.2 M potassium dihydrogen phosphate aqueous solution (250 mL) with a 0.2 N sodium hydroxide aqueous solution (118 mL) and an amount of water such that the total volume is 1,000 mL.
The present compound (Compound A, B, C or D) in the amount of 20 mg was added to each solution (40 mL) set forth above, which was then shaken with a recipro-shaker (170 rpm) for 2 hours. Each sample (4 mL) obtained at 15, 30, 45, 60 and 120 minutes was filtered through a filter having a pore diameter of 0.45 µm to give a sample solution. The concentration of the said compound in the sample solution was determined by high performance liquid chromatography and the solubility was calculated. The high performance liquid chromatographic measurement was performed with HITACHI D-7000 (wave length: 254 nm; column: YMC-PACK C18; column temperature: 40°C; injection volume: 10 µL; flow rate: 1 mL/min; mobile phase: a solution obtained by dissolving sodium 1-octanesufonate (4.3 g) in a solution of phosphoric acid (1 mL) in water (1000 mL), and adding acetonitrile (400 mL) to 600 mL of the thus obtained solution . The retention time of each of Compounds A, B, C and D was about 20 minutes, about 14 minuets, about 25 minutes and about 27 minutes, respectively. […]
In this connection, the measurement was carried out according to the procedure of Reference Example 1.

[3] = pH 1.2, simulated gastric fluid
[4] = pH 6.8, fassgf or other biorelevant
[5] = pH 1.2, simulated gastric fluid, 1st fluid (model of human gastric juice, pH about 1.2), after 2 hours, crystal form, read-out: Solubility (mg/mL) 1st fluid
[6] = pH 6.8, fassgf or other biorelevant, 2nd fluid (model of human intestinal juice, pH about 6.8), after 2 hours, crystal form, read-out: Solubility (mg/mL) 2nd fluid
[7] = water, solubility after 2 hours, compound in crystal form, 20 mg in 40 mL, read-out: Solubility (mg/mL) Water

Row | crystallinity, another lot separately prepared [1] | crystallinity [1] | solubility at 2 h [2, 3] | solubility at 2 h [2, 4] | solubility at 2 h ([2]; water) | solubility at 2 h [2, 5] | solubility at 2 h [2, 6] | solubility at 2 h [2, 7] | SMILES
1 | 72.0% | 70.3% | 0.008 mg/mL | 0.014 mg/mL | 0.471 mg/mL |  |  |  | CS(=O)(=O)Nc1cc([C@@H](O)CNCCOc2ccc3c(c2)[nH]c2ccccc23)ccc1Cl.Cl [Compound C, (R)-N-[5-[2-[2-(9H-carbazol-2-yloxy)ethylamino]-1-hydroxyethyl]-2-chlorophenyl]methanesulfonamide hydrochloride]
2 | 88.8% | 83.5% |  |  |  | 0.002 mg/mL | 0.005 mg/mL | 0.123 mg/mL | CS(=O)(=O)Nc1cccc([C@@H](O)CNCCOc2ccc3c(c2)[nH]c2ccccc23)c1.Cl [Compound A, (R)-N-[3-[2-[2-(9H-carbazol-2-yloxy)ethylamino]-1-hydroxyethyl]phenyl]methanesulfonamide hydrochloride]
3 |  |  | 0.035 mg/mL | 0.012 mg/mL | 0.701 mg/mL |  |  |  | CS(=O)(=O)Nc1cc([C@@H](O)CNCCOc2ccc3c(c2)[nH]c2ccccc23)ccc1Br.Cl [Compound D, (R)-N-[5-[2-[2-(9H-carbazol-2-yloxy)ethylamino]-1-hydroxyethyl]-2-bromophenyl]methanesulfonamide hydrochloride]
4 | 70.5% | 61.1% |  |  |  | 0.003 mg/mL | 0.003 mg/mL | 1.34 mg/mL | CS(=O)(=O)Nc1cc([C@@H](O)CNCCOc2ccc3c(c2)[nH]c2ccccc23)ccc1O.O=C(O)C(O)C(O)C(=O)O [Compound B, (R)-N-[5-[2-[2-(9H-carbazol-2-yloxy)ethylamino]-1-hydroxyethyl]-2-hydroxyphenyl]methanesulfonamide D-tartrate]
